Laboratory results reported in patent US20040176361A1, “Fused heterocyclic compound and medicinal use thereof” (priority 2001, published 2004).
Read-outs that look alike come from different tables or passages of the source.

What was measured:
[1] = system: P388D1 cells; assay: Hydrogen peroxide (H2O2) induced cytotoxicity suppressive action; assay type: cell-based; conditions: H2O2 (2 mM), 4 hr, LDH activity, read-out: Cell death suppressive action IC50
Protocol: P388D1 cells cultured to confluence in a 25 cm^2 flask were sown in 96-well plate at a density of […]. The test compound was added, and the cells were incubated for 15 min (37° C.), after which H2O2 (2 mM) was added, and the cells were incubated for 4 hr. After the completion of the incubation, the culture supernatant was recovered, and the LDH activity, which is an index of cytotoxicity, was measured using an LDH-cytotoxicity test kit (Wako Pure Chemical Industries, Ltd.).

[2] = biological target: Recombinant human PARP (Homo sapiens, UniProt P09874); assay: PARP enzyme activity inhibitory action; conditions: 3H-NAD, activated DNA, 25° C. 15 min
Protocol: After incubation at 25° C. for 15 min., the reaction was quenched with 20% trichloroacetic acid, and the resulting acid insoluble fraction was adsorbed on a GF/B filter. The filter was washed several times with 5% trichloroacetic acid, and the radiation dose on the filter was measured by liquid scintillation counter.

[3] = PARP inhibitory activity IC50 (nM), average of 3 measurements

Sequence of Recombinant human PARP (P09874 whole entry): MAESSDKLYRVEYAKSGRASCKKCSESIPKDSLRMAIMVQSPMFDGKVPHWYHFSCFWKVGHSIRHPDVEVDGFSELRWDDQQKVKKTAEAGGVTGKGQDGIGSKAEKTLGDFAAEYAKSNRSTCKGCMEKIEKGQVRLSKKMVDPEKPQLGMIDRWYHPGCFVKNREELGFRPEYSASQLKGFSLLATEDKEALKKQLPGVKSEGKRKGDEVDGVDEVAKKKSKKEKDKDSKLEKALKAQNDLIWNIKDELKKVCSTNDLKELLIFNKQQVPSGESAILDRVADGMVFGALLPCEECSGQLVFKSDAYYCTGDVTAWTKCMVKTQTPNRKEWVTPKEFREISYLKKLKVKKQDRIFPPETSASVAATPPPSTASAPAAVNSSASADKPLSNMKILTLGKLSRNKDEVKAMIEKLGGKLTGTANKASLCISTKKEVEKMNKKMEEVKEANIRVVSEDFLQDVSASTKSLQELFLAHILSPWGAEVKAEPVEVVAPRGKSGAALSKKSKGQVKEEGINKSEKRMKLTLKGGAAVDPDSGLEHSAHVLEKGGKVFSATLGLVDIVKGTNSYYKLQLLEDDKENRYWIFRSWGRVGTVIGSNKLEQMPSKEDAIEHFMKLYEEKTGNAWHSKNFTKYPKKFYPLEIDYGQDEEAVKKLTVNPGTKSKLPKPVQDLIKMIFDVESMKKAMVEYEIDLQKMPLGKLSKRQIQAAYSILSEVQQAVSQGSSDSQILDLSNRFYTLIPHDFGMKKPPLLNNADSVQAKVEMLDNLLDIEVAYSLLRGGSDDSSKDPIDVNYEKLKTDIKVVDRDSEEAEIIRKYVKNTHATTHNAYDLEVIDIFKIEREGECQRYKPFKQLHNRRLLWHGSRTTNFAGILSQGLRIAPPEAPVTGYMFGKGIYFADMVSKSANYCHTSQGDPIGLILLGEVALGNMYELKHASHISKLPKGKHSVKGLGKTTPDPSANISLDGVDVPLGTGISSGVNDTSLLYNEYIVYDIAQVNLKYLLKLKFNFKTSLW

SMILES	IC50 [2, 3] [nM]	melting point	further results
O=c1[nH]c(CCN2CCCCC2)cc2c(O)cccc12 [Example 189, 5-hydroxy-3-(2-(piperidin-1-yl)ethyl)-2H-isoquinolin-1-one]	17		IC50 ([1]; Mus musculus): 85 nM
CN1CCC(c2cc3c(N)cccc3c(=O)[nH]2)CC1 [Example 181, 5-amino-3-(1-methylpiperidin-4-yl)-2H-isoquinolin-1-one]	22		IC50 ([1]; Mus musculus): 220 nM
O=C1NCCc2c(OCCCCN3CCCCC3)cccc21 [DPQ, 3,4-dihydro-5-[4-(1-piperidinyl)-butoxy]-1(2H)-isoquinoline, reference compound]			IC50 [1]: 3300 nM; IC50 ([2]; read-out: PARP inhibitory activity IC50, average of 3 measurements): 1000 nM
Cc1cccc2c(=O)[nH]c(N3CCN(C)CC3)cc12 [Example 1, 5-methyl-3-(4-methylpiperazin-1-yl)-2H-isoquinolin-1-one]	38		IC50 ([1]; Mus musculus): 120 nM; IC50 ([2]; PARP inhibitory activity IC50 (nM), average of 2 measurements): 42 nM
Cc1cccc2c(=O)[nH]c(CCCN(C)C)cc12 [Example 90, 3-(3-(dimethylamino)propyl)-5-methyl-2H-isoquinolin-1-one]	26		IC50 ([1]; Mus musculus): 140 nM
CN1CC=C(c2cc3ccccc3c(=O)[nH]2)CC1 [Example 190, 3-(1-methyl-1,2,3,6-tetrahydropyridin-4-yl)-2H-isoquinolin-1-one]	39	222 to 223 °C	
CN1CCC(c2[nH]c(=O)c3ccccc3c2-c2ccccc2)CC1 [Example 98, 3-(1-methylpiperidin-4-yl)-4-phenyl-2H-isoquinolin-1-one ⅕ water adduct]	87	258 to 260 °C (dec.)	
CN(C)C1CCN(c2cc3ccccc3c(=O)[nH]2)CC1 [Example 3, 3-(4-dimethylaminopiperidine-1-yl)-2H-isoquinolin-1-one]	70	204 to 205 °C (dec.)	
CN1CCC(c2cc3ccc(Cl)cc3c(=O)[nH]2)CC1 [Example 183, 7-chloro-3-(1-methylpiperidin-4-yl)-2H-isoquinolin-1-one]	44	253 to 255 °C	
O=c1[nH]c(CCCN2CCCC2)cc2c(O)cccc12 [Example 217, 5-hydroxy-3-(3-(pyrrolidin-1-yl)propyl)-2H-isoquinolin-1-one]	28	222 to 225 °C	
COc1cccc2c(=O)[nH]c(C3CCN(C)CC3)cc12 [Example 107, 5-methoxy-3-(1-methylpiperidin-4-yl)-2H-isoquinolin-1-one]	45	239 to 242 °C	

The next lines start with results.

IC50 [2, 3] [nM]	melting point	SMILES	further results
54	216 to 217 °C	CN1CCN(c2cc3c(F)cccc3c(=O)[nH]2)CC1CO (centres unmarked) [Example 205, 5-fluoro-3-(3-hydroxymethyl-4-methylpiperazin-1-yl)-2H-isoquinolin-1-one]	
65	210 to 211 °C (dec.)	CN(C)C1CCN(c2cc3c(Cl)cccc3c(=O)[nH]2)CC1 [Example 29, 5-chloro-3-(4-dimethylaminopiperidin-1-yl)-2H-isoquinolin-1-one]	
96	240 to 241 °C (dec.)	CN1CCN(c2cc3c(Br)cccc3c(=O)[nH]2)CC1 [Example 22, 5-bromo-3-(4-methylpiperazin-1-yl)-2H-isoquinolin-1-one]	
82	230 to 231 °C (dec.)	CN1CCN(c2cc3c(Cl)cccc3c(=O)[nH]2)CC1 [Example 21, 5-chloro-3-(4-methylpiperazin-1-yl)-2H-isoquinolin-1-one]	
45	212 to 214 °C	CN1CCN(c2cc3c(Cl)cccc3c(=O)[nH]2)CC1CO (centres unmarked) [Example 214, 5-chloro-3-(3-hydroxymethyl-4-methylpiperazin-1-yl)-2H-isoquinolin-1-one]	
75	238 to 239 °C (dec.)	CN1CCN(c2cc3c(F)cccc3c(=O)[nH]2)CC1 [Example 20, 5-fluoro-3-(4-methylpiperazin-1-yl)-2H-isoquinolin-1-one]	
